Assay results taken from PMC12566046, “Arylpiperazinyl-Benzocycloheptapyrrole-Carboxamides Endowed with Dual Anticancer and Antiviral Activities” (Molecules, 2025).
Like-named read-outs stand apart in the source and are kept apart here.

Experiments:
[1] = tested on: IAV strain A/PR/8/34 (H1N1); details: for IAV/MDCK SI: preliminary screening
[2] = tested on: HCT-15 (colon cancer cell line); test: NCI-60 single-dose assay; format: cell-based, human; details: for inhibition at 10 µM: Homo sapiens, HCT-15, read-out: growth inhibition (GI%) and cytotoxicity (negative values)
In short: (§1)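 Human cancer lines from nine tumour types in the NCI-60 panel were exposed to one compound dose, and cytotoxic activity was recorded for each line.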

[3] = tested on: HCC-2998 (colon cancer cell line); test: NCI-60 single-dose assay; format: cell-based, human; details: for growth inhibition (GI%) and cytotoxicity (negative values): human
In short: as §1

[4] = tested on: SW-620 (colon cancer cell line); test: NCI-60 single-dose assay; format: cell-based, human; details: for inhibition at 10 µM: Homo sapiens, SW-620, read-out: growth inhibition (GI%) and cytotoxicity (negative values)
In short: as §1

[5] = tested on: KM12 (colon cancer cell line); test: NCI-60 single-dose assay; format: cell-based, human; details: for inhibition at 10 µM: Homo sapiens, KM12, read-out: growth inhibition (GI%) and cytotoxicity (negative values)
In short: as §1

[6] = tested on: HL-60(TB) (leukemia cell line); test: NCI-60 single-dose assay; format: cell-based, human; details: human
[7] = tested on: COLO 205 (colon cancer cell line); test: NCI-60 single-dose assay; format: cell-based, human; details: human
In short: as §1

[8] = tested on: MALME-3M (melanoma cell line); test: NCI-60 single-dose assay; format: cell-based, human; details: for growth inhibition (GI%) and cytotoxicity (negative values): human; for inhibition at 10 µM: Homo sapiens, Malme-3M, read-out: growth inhibition (GI%) and cytotoxicity (negative values)
In short: as §1

[9] = tested on: NCI-H460 (non-small cell lung cancer cell line); test: NCI-60 single-dose assay; format: cell-based, human; details: for inhibition at 10 µM: Homo sapiens, NCI-H460, read-out: growth inhibition (GI%) and cytotoxicity (negative values)
In short: as §1

[10] = tested on: CAKI-1 (renal cancer cell line); test: NCI-60 single-dose assay; format: cell-based, human; details: for inhibition at 10 µM: Homo sapiens, CAKI-1, read-out: growth inhibition (GI%) and cytotoxicity (negative values)
In short: as §1

[11] = tested on: RPMI-8226 (leukemia cell line); test: NCI-60 single-dose assay; format: cell-based, human; details: for inhibition at 10 µM: Homo sapiens, RPMI-8226, read-out: growth inhibition (GI%) and cytotoxicity (negative values)
In short: as §1

[12] = tested on: NCI-H522 (non-small cell lung cancer cell line); test: NCI-60 single-dose assay; format: cell-based, human; details: for inhibition at 10 µM: Homo sapiens, NCI-H522, read-out: growth inhibition (GI%) and cytotoxicity (negative values)
In short: as §1

[13] = tested on: NCI-H226 (non-small cell lung cancer cell line); test: NCI-60 single-dose assay; format: cell-based, human; details: for inhibition at 10 µM: Homo sapiens, NCI-H226, read-out: growth inhibition (GI%) and cytotoxicity (negative values)
In short: as §1

M14 (melanoma cell line) = test: NCI-60 single-dose assay; format: cell-based, human; details: human
In short: as §1

[14] = tested on: UACC-62 (melanoma cell line); test: NCI-60 single-dose assay; format: cell-based, human; details: for inhibition at 10 µM: Homo sapiens, UACC-62, read-out: growth inhibition (GI%) and cytotoxicity (negative values)
In short: as §1

[15] = tested on: MDA-MB-468 (breast cancer cell line); test: NCI-60 single-dose assay; format: cell-based, human; details: human
In short: as §1

[16] = tested on: 786-0 (renal cancer cell line); test: NCI-60 single-dose assay; format: cell-based, human; details: for inhibition at 10 µM: Homo sapiens, 786-0, read-out: growth inhibition (GI%) and cytotoxicity (negative values)
In short: as §1

[17] = Cytotoxicity on uninfected Huh-7 cells (WST-8, crystal violet); details: human, uninfected Huh-7 cells
Procedure: The toxicity of the compounds at the same concentration was tested on the same cells in parallel.
Cytotoxic effects were evaluated on uninfected cells using the WST-8 assay (Orangu, Cell Guidance Systems, Cambridge, UK) and the crystal violet assay [23]. […] Huh-7, MDCK, and Vero TMPRSS cells were seeded at 1 × 10^4, 1.5 × 10^4, and 1.2 × 10^4 cells/well, respectively, and incubated for 48 h (Huh-7 and MDCK) or 24 h (VERO TMPRSS), following conditions matching those of the corresponding antiviral assays in terms of timing and culture medium. At the end of incubation, the medium was replaced with a 10% WST-8 solution in DMEM and incubated for 1 h at 37 °C. Optical density (OD) was then measured at 450 nm using a Varioskan LUX plate reader (ThermoFisher Scientific, Milano, Italy). Subsequently, cells were fixed with 4% buffered formalin solution (Merck®, Darmstadt, Germany), stained with 1% crystal violet (Merck®, Darmstadt, Germany), and the dye was solubilized in 30% acetic acid for 30 min under shaking. OD was then measured at 595 nm as an additional readout of cell viability. The percentage of viability at each concentration was calculated using the formula:% viability = 100 × (ODcompound/ODuntreated control) where ODcompound and ODuntreated are the OD of the cells treated with compound or DMSO, respectively.
The CC50 value was determined by nonlinear regression analysis on GraphPad Prism 7 (San Diego, CA, USA).

[18] = tested on: IAV strain A/PR/8/34 (H1N1); test: microbe, parasite or virus in culture; details: Influenza A virus, MDCK, read-out: IAV/MDCK EC50
[19] = tested on: SARS-CoV-2 VR PV10734 (strain Milano); test: microbe, parasite or virus in culture; format: cell-based; details: preliminary screening (50, 5, 0.5 μM), Vero TMPRSS, read-out: SARS‐CoV‐2/Vero TMPRSS EC50
in vitro [20] = details: dog
[21] = tested on: ZIKV, strain Brazil/2016/INMI1; test: ZIKV viral yield reduction assay on Huh-7 cells; format: cell-based, Zika virus
In short: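 Huh-7 cells infected with ZIKV at MOI 1 for 2 h at 37 °C, compounds added right after infection in duplicate at 50, 5 and 0.5 μM. Supernatants taken at 48 h and titrated by plaque assay on VERO E6 under carboxymethyl cellulose with crystal violet staining. % inhibition from PFU/mL versus DMSO-treated control; SI = CC50/EC50.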

NCI-60 cell line panel = test: NCI-60 single-dose assay, whole panel; format: cell-based, human; details: summary over the panel
In short: as §1

[22] = tested on: K-562 (leukemia cell line); test: NCI-60 single-dose assay; format: cell-based; details: Homo sapiens, K562, read-out: growth inhibition (GI%) and cytotoxicity (negative values)
Text: We first evaluated the cytotoxic activity of tricyclic-pyrrole carboxamides 1–20 using the NCI-60 cell line panel, representing nine different human cancers: leukemia, melanoma, and cancers of the lung, colon, central nervous system (CNS), ovary, kidney, prostate, and breast (the one-dose graph for compounds 1–20 is reported in Supplementary Materials, Figures S43–S62). Compounds 1, 5, 10, 11, 17, and 20 satisfied pre-determined threshold inhibition criteria in a minimum number of cell lines; therefore, they were also tested in the full five-dose assay (Figures S63–S68 in the Supplementary Materials).

in vitro [23] = details: African green monkey
[24] = Severe acute respiratory syndrome coronavirus 2
[25] = Zika virus, preliminary screening (50, 5, 0.5 μM), Huh-7, read-out: ZIKV/Huh‐7 EC50

Row | Compound | IAV/MDCK SI [1] | inhibition at 10 µM [2] [%] | growth inhibition (GI%) and cytotoxicity (negative values) [3] [%] | inhibition at 10 µM [5] [%] | growth inhibition (GI%) and cytotoxicity (negative values) [6] [%] | growth inhibition (GI%) and cytotoxicity (negative values) [7] [%] | inhibition at 10 µM [9] [%] | inhibition at 10 µM [10] [%] | inhibition at 10 µM [12] [%] | inhibition at 10 µM [13] [%] | growth inhibition (GI%) and cytotoxicity (negative values) (M14 (melanoma cell line)) [%] | growth inhibition (GI%) and cytotoxicity (negative values) [15] [%] | inhibition at 10 µM [16] [%] | CC50 at 48 h [17] [µM] | CC50 (in vitro [20]) [µM] | EC50 [21, 25] [µM] | growth inhibition (GI%) reached against cancer cell lines of the NCI-60 panel (NCI-60 cell line panel) [%] | inhibition at 10 µM [22] [%] | CC50 at 24 h (in vitro [23]) [µM] | inhibition at 10 µM [4] [%] | other results
1 | O=C(NCCCN1CCN(Cc2ccccc2)CC1)c1c(Cl)[nH]c2c1CCCc1ccccc1-2 [Compound 20, N-(3-(4-Benzylpiperazin-1-yl)propyl)-2-chloro-1,4,5,6-tetrahydrobenzo[6,7]cyclohepta[1,2-b]pyrrole-3-carboxamide] | 0.35 | 99 | −91.84 | 70.3 | −23.10 | −59.92 | 83.1 | 84.7 | 92.2 | < 60 | −69.37 | −29.55 | 87 | 6.23 | 6.12 | 4.74 | > 90 | < 60 | 15.4 | – | growth inhibition (GI%) and cytotoxicity (negative values) ([4]; human): −40.23%; growth inhibition (GI%) and cytotoxicity (negative values) [8]: −84.03%; growth inhibition (GI%) and cytotoxicity (negative values) ([11]; human): −1.74%; growth inhibition (GI%) and cytotoxicity (negative values) ([14]; human): −59.22%; EC50 [18]: 17.7 µM; EC50 [19, 24]: 17.7 µM
2 | O=C(NCCCN1CCN(c2ccccc2)CC1)c1cc2c([nH]1)-c1ccccc1CCC2 [Compound 10, N-(3-(4-Phenylpiperazin-1-yl)propyl)-1,4,5,6-tetrahydrobenzo[6,7]cyclohepta[1,2-b]pyrrole-2-carboxamide] | – | 91.2 | −9.32 | 73.7 | −30.92 | −58.03 | 90.7 | 89.4 | 71.4 | 75.2 | −59.25 | −13.75 | 68.7 | 12.4 | 67.8 | 3.59 | > 90 | 99.4 | 55.7 | 80.1 | growth inhibition (GI%) and cytotoxicity (negative values) [8]: −72.64%; inhibition at 10 µM [11]: < 60%; inhibition at 10 µM [14]: < 60%
3 | CCOc1ccccc1N1CCN(CCNC(=O)c2c(Cl)[nH]c3c2CCCc2ccccc2-3)CC1 [Compound 17] | 0.23 | 81 | −35.63 | < 60 | −8.21 | −47.24 | 70 | 71.6 | 65.7 | 60.4 | −7.74 | −3.78 | < 60 | 16.4 | 8.13 | 4.46 | > 90 | 100 | 37.2 | < 60 | inhibition at 10 µM [8]: 90.3%; inhibition at 10 µM [11]: < 60%; inhibition at 10 µM [14]: < 60%; EC50 [18]: 34.9 µM
4 | COc1ccccc1N1CCN(CCNC(=O)c2[nH]c3c(c2Cl)CCCc2ccccc2-3)CC1 [Compound 5] | – | 92.5 | – | 67.7 | −8.91 | −48.74 | 79.2 | 77.9 | 85.5 | < 60 | −22.16 | – | 63 | 24.3 | 11 | – | > 90 | 95.8 | 29.4 | 67.4 | inhibition at 10 µM ([3]; Homo sapiens, HCC 2998, read-out: growth inhibition (GI%) and cytotoxicity (negative values)): < 60%; inhibition at 10 µM [8]: < 60%; inhibition at 10 µM [11]: < 60%; inhibition at 10 µM [14]: < 60%; EC50 [19, 24]: 34.9 µM; EC50 ([21]; Zika virus, Huh-7, read-out: ZIKV/Huh‐7 EC50): 3.82 µM
5 | N-(3-(4-Benzylpiperazin-1-yl)propyl)-2-chloro-1,4,5,6-tetrahydrobenzo[6,7]cyclohepta[1,2-b]pyrrole-2-carboxamide [Compound 11] | 0.30 | – | – | – | – | – | – | – | – | – | – | – | – | – | – | – | > 90 | – | – | – | EC50 ([1]; read-out: IAV/MDCK EC50, preliminary screening (50, 5, 0.5 μM), MDCK): 17.7 µM; growth inhibition (GI%) and cytotoxicity (negative values) ([2]; HCT-15, 10^−5 M, single dose): 84.78%; growth inhibition (GI%) and cytotoxicity (negative values) ([4]; SW-620, 10^−5 M, single dose): 86.67%; growth inhibition (GI%) and cytotoxicity (negative values) ([5]; KM12, 10^−5 M, single dose): 78.00%; growth inhibition (GI%) and cytotoxicity (negative values) ([9]; NCI-H460, 10^−5 M, single dose): 98.58%; growth inhibition (GI%) and cytotoxicity (negative values) ([10]; CAKI-1, 10^−5 M, single dose): 91.53%; growth inhibition (GI%) and cytotoxicity (negative values) ([11]; RPMI-8226, 10^−5 M, single dose): 92.04%; growth inhibition (GI%) and cytotoxicity (negative values) ([12]; NCI-H522, 10^−5 M, single dose): 82.24%; growth inhibition (GI%) and cytotoxicity (negative values) ([13]; NCI-H226, 10^−5 M, single dose): 64.87%; growth inhibition (GI%) and cytotoxicity (negative values) ([16]; 786-0, 10^−5 M, single dose): 72.88%; EC50 [19]: 17.7 µM; EC50 ([21]; preliminary screening (50, 5, 0.5 μM), Huh-7, read-out: ZIKV/Huh‐7 EC50): 3.49 µM
